# Results: patent US20230146455A1, “TREATMENT OF INFLAMMATORY DISEASES WITH PEPTIDES AND PHARMACEUTICAL COMPOSITIONS” (Yuyu Pharma, Inc., priority 2020, published 2023)
# Several values for one entry are separate records, joined by “and”; a condition that tells them apart may be missing. Equal values may be shown once. Where a SMILES comes first, the peptide text is derived from it. [ ]: non-standard residue; d: D form. Hyp = O=C(O)[C@@H]1C[C@@H](O)CN1
# Tested on: IFN-gamma
# Assay: Example 9 Luminex, LPS hPBMCs: IFN-gamma
# Type: cell-based, human
# Description: Treatment Human PBMCs were pretreated with YY-101, YDE-011 and YDE-043 or reference compound; Xiidra® at various concentration (ranging from 1 nM to 100 uM) for 2 h before stimulation. An equal volume of 0.5% DMSO was used as a vehicle control. Then, the cells were treated with LPS at 5 ug/ml. The supernatants from treated cells were harvested at 24 h and placed in a 96 well for Luminex cytokine & chemokine profiling using a Luminex 200 multiplex assay (Luminex; R&D system, USA).
# The main study arm with triplicate wells per group in a 24-well plate: • 1. Blank • 2. PBMC: 0.5% DMSO • 3. PBMC+LPS (5 ug/ml) • 4. PBMC+YY-101 100 uM • 5. PBMC+YY-101 10 uM • 6. PBMC+YY-101 1 uM • 7. PBMC+YY-101 0.1 uM • 8. PBMC+YY-101 0.01 uM • 9. PBMC+LPS (5 ug/ml)+Xiidra®100 uM • 10. PBMC+LPS (5 ug/ml)+Xiidra® 10 uM • 11. PBMC+LPS (5 ug/ml)+Xiidra® 1 uM • 12. PBMC+LPS (5 ug/ml)+Xiidra®0.1 uM • 13. PBMC+LPS (5 ug/ml)+Xiidra®0.01 uM • 14. PBMC+LPS (5 ug/ml)+Xiidra®0.001 uM • 15. PBMC+LPS (5 ug/ml)+YY-101 100 uM • 16. PBMC+LPS (5 ug/ml)+YY-101 10 uM • 17. PBMC+LPS (5 ug/ml)+YY-101 1 uM • 18. PBMC+LPS (5 ug/ml)+YY-101 0.1 uM • 19. PBMC+LPS (5 ug/ml)+YY-101 0.01 uM • 20. PBMC+LPS (5 ug/ml)+YY-101 0.001 uM • 21. PBMC+LPS (5 ug/ml)+YDE-011 100 uM • 22. PBMC+LPS (5 ug/ml)+YDE-011 10 uM • 23. PBMC+LPS (5 ug/ml)+YDE-011 1 uM • 24. PBMC+LPS (5 ug/ml)+YDE-011 0.1 uM • 25. PBMC+LPS (5 ug/ml)+YDE-011 0.01 uM • 26. PBMC+LPS (5 ug/ml)+YDE-011 0.001 uM • 27. PBMC+LPS (5 ug/ml)+YDE-043 100 uM • 28. PBMC+LPS (5 ug/ml)+YDE-043 10 uM • 29. PBMC+LPS (5 ug/ml)+YDE-043 1 uM • 30. PBMC+LPS (5 ug/ml)+YDE-043 0.1 uM • 31. PBMC+LPS (5 ug/ml)+YDE-043 0.01 uM • 32. PBMC+LPS (5 ug/ml)+YDE-043 0.001 uM
# Multiplex assay was used to measure 30 cytokines and chemokines. The 1:2, 1:10 and 1:200 diluted cell supernatant and serial dilution of the standard were dispensed into a 96 well plate at 50 ul/well. Then, the pre-mixed cocktail of antibody-coated magnetic beads was dispensed at 50 ul/well and incubated at room temperature for 2 h in a horizontal orbital microplate shaker at 800±500 rpm. The beads were washed using a magnetic device to prevent loss. The biotin-antibody was dispensed in 50 ul of each well and incubated at room temperature for 1 h in a shaker at 800±500 rpm. After washing, streptavidin-PE was added at 50 ul/well and incubated at room temperature for 30 min in a shaker under the same conditions. Finally, after washing, wash buffer (100 ul/well) was added to the plate and incubated in a shaker for 2 min. The Luminex™ 200 setting were set according to the manufacturer's protocol. The data was calculated with a standard five-parameter logistic nonlinear regression analysis of the data (xPonent software 4.2, USA). The levels of cytokine/chemokine are normalized to the live cell counts (1×10^5 cells/mL) and presented as concentrations per mL (pg/mL or ng/mL).
# [1] = PBMC + LPS(5 ug/ml) + test article 0.001 uM, Mean
# [2] = PBMC + LPS(5 ug/ml) + test article 0.001 uM, single replicates
# [3] = PBMC + LPS(5 ug/ml) + test article 0.01 uM, Mean
# [4] = PBMC + LPS(5 ug/ml) + test article 0.01 uM, single replicates
# [5] = PBMC + LPS(5 ug/ml) + test article 0.1 uM, Mean
# [6] = PBMC + LPS(5 ug/ml) + test article 0.1 uM, single replicates
# [7] = PBMC + LPS(5 ug/ml) + test article 1 uM, Mean
# [8] = PBMC + LPS(5 ug/ml) + test article 1 uM, single replicates
# [9] = PBMC + LPS(5 ug/ml) + test article 10 uM, Mean
# [10] = PBMC + LPS(5 ug/ml) + test article 10 uM, single replicates
# [11] = PBMC + LPS(5 ug/ml) + test article 100 uM, Mean
# [12] = PBMC + LPS(5 ug/ml) + test article 100 uM, single replicates
SMILES,Concentration (IFN-gamma) [1],conc/live cell (IFN-gamma) [1],Concentration (IFN-gamma) [2],conc/live cell (IFN-gamma) [2],Concentration (IFN-gamma) [3],conc/live cell (IFN-gamma) [3],Concentration (IFN-gamma) [4],conc/live cell (IFN-gamma) [4],Concentration (IFN-gamma) [5],conc/live cell (IFN-gamma) [5],Concentration (IFN-gamma) [6],conc/live cell (IFN-gamma) [6],Concentration (IFN-gamma) [7],conc/live cell (IFN-gamma) [7],Concentration (IFN-gamma) [8],conc/live cell (IFN-gamma) [8],Concentration (IFN-gamma) [9],conc/live cell (IFN-gamma) [9],Concentration (IFN-gamma) [10],conc/live cell (IFN-gamma) [10],further results
CC(C)C[C@H](NC(=O)CNC(=O)[C@H](CC(C)C)NC(=O)[C@H](CCC(N)=O)NC(=O)CNC(=O)[C@@H]1C[C@@H](O)CN1)C(=O)N[C@@H](C)C(=O)NCC(=O)N1CCC[C@H]1C(=O)N[C@@H](CCCCN)C(=O)O [YDE-011] (H-[Hyp]GQLGLAGPK-OH),773.0 pg/mL,143.6 pg/10^5,624.6 pg/mL and 730.3 pg/mL and 964.1 pg/mL,138.8 pg/10^5 and 125.9 pg/10^5 and 166.2 pg/10^5,792.2 pg/mL,135.8 pg/10^5,773.0 pg/mL and 753.6 pg/mL and 849.9 pg/mL,124.7 pg/10^5 and 147.8 pg/10^5 and 134.9 pg/10^5,812.6 pg/mL,141.6 pg/10^5,892.0 pg/mL and 753.6 pg/mL and 792.3 pg/mL,135.1 pg/10^5 and 150.7 pg/10^5 and 139.0 pg/10^5,987.2 pg/mL,196.0 pg/10^5,1088.2 pg/mL and 909.1 pg/mL and 964.1 pg/mL,197.9 pg/10^5 and 189.4 pg/10^5 and 200.9 pg/10^5,841.5 pg/mL,158.5 pg/10^5,973.6 pg/mL and 861.4 pg/mL and 689.4 pg/mL,180.3 pg/10^5 and 148.5 pg/10^5 and 146.7 pg/10^5,Concentration (IFN-gamma) [11]: 534.1 pg/mL; conc/live cell (IFN-gamma) [11]: 88.0 pg/10^5; Concentration (IFN-gamma) [12]: 604.8 pg/mL and 492.8 pg/mL and 504.9 pg/mL; conc/live cell (IFN-gamma) [12]: 99.1 pg/10^5 and 80.8 pg/10^5 and 84.1 pg/10^5
CC(C)C[C@H](NC(=O)[C@H](CCC(N)=O)NC(=O)CNC(=O)[C@@H]1C[C@@H](O)CN1)C(=O)NCC(=O)O [YDE-043] (H-[Hyp]GQLG-OH; N-terminus and C-terminus assumed),861.2 pg/mL,174.1 pg/10^5,863.3 pg/mL and 945.2 pg/mL and 774.9 pg/mL,196.2 pg/10^5 and 157.5 pg/10^5 and 168.5 pg/10^5,841.6 pg/mL,161.9 pg/10^5,857.6 pg/mL and 792.3 pg/mL and 874.8 pg/mL,190.6 pg/10^5 and 120.0 pg/10^5 and 175.0 pg/10^5,797.8 pg/mL,148.8 pg/10^5,892.0 pg/mL and 628.5 pg/mL and 872.9 pg/mL,178.4 pg/10^5 and 112.2 pg/10^5 and 155.9 pg/10^5,852.5 pg/mL,162.3 pg/10^5,734.2 pg/mL and 834.6 pg/mL and 988.7 pg/mL,126.6 pg/10^5 and 173.9 pg/10^5 and 186.5 pg/10^5,840.3 pg/mL,155.7 pg/10^5,828.9 pg/mL and 826.9 pg/mL and 865.3 pg/mL,159.4 pg/10^5 and 153.1 pg/10^5 and 154.5 pg/10^5,Concentration (IFN-gamma) [11]: 462.3 pg/mL; conc/live cell (IFN-gamma) [11]: 73.4 pg/10^5; Concentration (IFN-gamma) [12]: 480.6 pg/mL and 444.0 pg/mL; conc/live cell (IFN-gamma) [12]: 77.5 pg/10^5 and 69.4 pg/10^5
